Earlier results as cited in US12194073B1, “Method of arthropod egress” (priority 2023, dated 2025).
Where two headings read alike, the source gives them in different places. Blank lines part the entries; values can stand above or below the molecule they belong to.

How the values were obtained:
[1] = for shelf stability at ambient temperature: suspension in vegetable oils, glycerol, mineral oil and white petrolatum
[2] = for therapeutic effect: suspension in vegetable oils, glycerol, mineral oil and white petrolatum
[3] = for drug payload: solution in squalane, with/without mineral oil
[4] = for ocular adverse effects: suspension in vegetable oils, glycerol, mineral oil and white petrolatum
[5] = self-emulsifying system; corn oil, PEG-6 esters, Tween 80 and Transcutol
[6] = solution in SFA (F4H5)
[7] = squalane, with/without mineral oil, as vehicle
[8] = not given; remark: listed apart in the source
[9] = not given; remark: listed apart in the source
Demodex folliculorum = conditions: all three concentrations; in vitro; vs 5% permethrin
[10] = solution in DMSO and castor oil
[11] = self-emulsifying system, Capmul MCM, Cremophor RH 40, Transcutol and hydroxypropylmethyl cellulose
[12] = self-emulsifying system, S-protected thiolated Eudragit L100-55-BAK ion pair, Labrafil M 1944CS
[13] = self-emulsifying system, corn oil, PEG-6 esters, Tween 80 and Transcutol
[14] = oleogel, soyabean oil, beeswax and gelator
[15] = suspension in sesame seed oil vs high-dose viscous aqueous formulation

Molecule: O=C(O)c1cccc(-c2noc(-c3ccccc3F)n2)c1 [Ataluren]
Sterility [1, 10]: Sterility maintained and drug degradation
drug degradation [1, 10]: inhibited; no penetration studies performed

Molecule: Clc1ccc(COC(Cn2ccnc2)c2ccc(Cl)cc2Cl)cc1 (stereo not drawn) [Econazole nitrate]
penetration [11]: Enhanced
onset of action [2, 11]: faster
in vitro release profile [3, 12]: good in vitro release profile; no in vivo studies
mucoadhesion [3, 12]: Mucoadhesive
sustained drug release over [3, 12]: 8 h
in vitro and in vivo safety [4, 11]: acceptable in vitro and in vivo safety

Molecule: CC[C@H]1OC(=O)[C@H](C)[C@@H](O[C@H]2C[C@@](C)(OC)[C@@H](O)[C@H](C)O2)[C@H](C)[C@@H](O[C@@H]2O[C@H](C)C[C@H](N(C)C)[C@H]2O)[C@](C)(O)C[C@@H](C)CN(C)[C@H](C)[C@@H](O)[C@]1(C)O [Azithromycin]
adverse events (if any) in clinical trials ([4]; Azyter, solution in MCT): mild to moderate
tolerability ([4]; Azyter, solution in MCT): well tolerated

drug stability [1, 13]: Improved
drug release [3, 13]: rapid
Molecule: CC(C)N1CCN(c2ccc(OCC3COC(Cn4cncn4)(c4ccc(Cl)cc4Cl)O3)cc2)CC1 (stereo not drawn) [Terconazole]
conjunctival irritation in vitro [5]: no

Molecule: C=CC[C@@H]1/C=C(\C)C[C@H](C)C[C@H](OC)[C@H]2O[C@@](O)(C(=O)C(=O)N3CCCC[C@H]3C(=O)O[C@H](/C(C)=C/[C@@H]3CC[C@@H](O)[C@H](OC)C3)[C@H](C)[C@@H](O)CC1=O)[C@H](C)C[C@@H]2OC [Tacrolimus]
intraocular penetration (solution in SFA (F4H5) vs aqueous suspension): greater intraocular penetration than aqueous
clinical signs of uveitis [6]: Significant improvement in clinical signs of uveitis;

Molecule: O=C(O)c1cn(C2CC2)c2cc(N3CCNCC3)c(F)cc2c1=O [ciprofloxacin]
drug payload [3]: high drug payload; potential to reduce dosing

Molecule: Cc1ccccc1N1CCN(CCc2nnc3n2CCCC3)CC1 [dapiprazole]
shelf stability at ambient temperature [1]: adverse effects; improved shelf stability at ambient
therapeutic effect [2]: Improved
ocular adverse effects [4]: reduced

Molecule: C[C@]12CCC(=O)C=C1CC[C@@H]1[C@@H]2[C@@H](O)C[C@@]2(C)[C@H]1CC[C@]2(O)C(=O)CO [Hydrocortisone]
drug payload [3]: high drug payload; potential to reduce dosing

Molecule: CC[C@@H]1C(=O)OC[C@@H]1Cc1cncn1C [Pilocarpine]
shelf stability at ambient temperature [1]: adverse effects; improved shelf stability at ambient
therapeutic effect [2]: Improved
ocular adverse effects [4]: reduced

Molecule: CC(C)CCCC(C)CCCC(C)CCCCC(C)CCCC(C)CCCC(C)C (stereo not drawn) [Squalane]
symptomatic relief in DED (vehicle) [7]: Vehicle beneficial for symptomatic relief in DED;

drug release [3, 14]: Extended
release profile and oleogel texture [3, 14]: customisable
Molecule: C[C@]12C=CC(=O)C=C1CC[C@H]1[C@@H]3C[C@@H](O)[C@](O)(C(=O)CO)[C@@]3(C)C[C@H](O)[C@@]12F [triamcinolone]

Molecule: ivermectin
solubility among the oils tested [8]: highest solubility in tea tree oil followed by ethylbutanoate

Molecule: CC[C@@H]1/C=C(\C)C[C@H](C)C[C@H](OC)[C@H]2O[C@@](O)(C(=O)C(=O)N3CCCC[C@H]3C(=O)O[C@H](/C(C)=C/[C@@H]3CC[C@H](Cl)[C@H](OC)C3)[C@H](C)[C@@H](O)CC1=O)[C@H](C)C[C@@H]2OC [Pimecrolimus]
drug payload [3]: high drug payload; potential to reduce dosing
safety ([9]; dog, in vivo): Better
clinical outcomes ([9]; solution in corn oil vs ointments, dogs with DED): Better clinical outcomes

Molecule: CNC[C@H](O)c1cccc(O)c1 [Phenylephrine]
onset of action [2, 15]: Faster
therapeutic response [2, 15]: higher

precorneal drainage (self-emulsifying system, linoleic acid, Cremophor RH 40 and propylene glycol): reduced
Molecule: C[C@]12C=CC(=O)C=C1CC[C@@H]1[C@@H]2[C@@H](O)C[C@@]2(C)[C@H]1CC[C@]2(O)C(=O)CO [Prednisolone]
drug payload [3]: high drug payload; potential to reduce dosing

Molecule: CC(C)OC(=O)CCC/C=C\C[C@@H]1[C@@H](CC[C@@H](O)CCc2ccccc2)[C@H](O)C[C@@H]1O [Latanoprost]
bioavailability (solution in SFA (F4H5, F6H8)): eyedrops at relatively lower dose; improved
Clinical efficacy ([2]; solution in SFA (F4H5, F6H8) at relatively lower dose vs marketed aqueous eyedrops): Clinical efficacy comparable to marketed aqueous

Molecule: CN[C@H](CC(C)C)C(=O)N[C@H]1C(=O)N[C@@H](CC(N)=O)C(=O)N[C@H]2C(=O)N[C@H]3C(=O)N[C@H](C(=O)N[C@H](C(=O)O)c4cc(O)cc(O)c4-c4cc3ccc4O)[C@H](O)c3ccc(c(Cl)c3)Oc3cc2cc(c3O[C@@H]2O[C@H](CO)[C@@H](O)[C@H](O)[C@H]2O[C@H]2C[C@](C)(N)[C@H](O)[C@H](C)O2)Oc2ccc(cc2Cl)[C@H]1O [Vancomycin]
drug release [3, 14]: Extended
release profile and oleogel texture [3, 14]: customisable

Molecule: O=C(O)CCCCCCCC(=O)O [azelaic acid]
anti-Demodex efficacy (Demodex folliculorum): comparable to that of 5% permethrin
